Activity calls are given as the source filed them. The rule behind the calls is not given here.

The record followed here is ChEMBL document CHEMBL4842311, “Novel Mechanistic Observations and NES-Binding Groove Features Revealed by the CRM1 Inhibitors Plumbagin and Oridonin” (J Nat Prod, 2021).

For assay [1], the target named is Exportin-1 (Homo sapiens) (UniProt O14980). Description: Inhibition of human wild type CRM1 assessed as C528 conjugation at 20 uM incubated for 2 hrs before binding by coomassie blue staining based pull-down assay.
In assay [2] the test system is Exportin-1 (Homo sapiens), O14980 [C528S]. The assay is described as follows: Inhibition of human CRM1-C528S mutant assessed as C528 conjugation at 20 uM incubated for 2 hrs before binding by coomassie blue staining based pull-down assay.
Assay [3] deals with Saccharomyces cerevisiae. Description: Inhibition of Yeast GST-tagged/TEV cleavage site fused CRM1 C152/C539 double mutant expressed in Escherichia coli BL21 (DE3) assessed as C1022 conjugation mediated NES inhibition at 60 uM measured after 2 hrs by coomassie blue staining based pull-down assay.
Assay [4] concerns Saccharomyces cerevisiae. The assay is described as follows: Inhibition of Yeast GST-tagged/TEV cleavage site fused CRM1 C152/C539/D1034A triple mutant expressed in Escherichia coli BL21 (DE3) assessed as decrease in NES binding at 60 uM measured after 2 hrs by coomassie blue staining based pull-down assay.
In assay [5] the target is Exportin-1 (Homo sapiens) (UniProt O14980). Description: Inhibition of human CRM1-WT assessed as C528 conjugation at 1 uM incubated for 2 hrs before binding by coomassie blue staining based pull-down assay.

Exportin-1 (Homo sapiens), sequence (O14980 whole entry): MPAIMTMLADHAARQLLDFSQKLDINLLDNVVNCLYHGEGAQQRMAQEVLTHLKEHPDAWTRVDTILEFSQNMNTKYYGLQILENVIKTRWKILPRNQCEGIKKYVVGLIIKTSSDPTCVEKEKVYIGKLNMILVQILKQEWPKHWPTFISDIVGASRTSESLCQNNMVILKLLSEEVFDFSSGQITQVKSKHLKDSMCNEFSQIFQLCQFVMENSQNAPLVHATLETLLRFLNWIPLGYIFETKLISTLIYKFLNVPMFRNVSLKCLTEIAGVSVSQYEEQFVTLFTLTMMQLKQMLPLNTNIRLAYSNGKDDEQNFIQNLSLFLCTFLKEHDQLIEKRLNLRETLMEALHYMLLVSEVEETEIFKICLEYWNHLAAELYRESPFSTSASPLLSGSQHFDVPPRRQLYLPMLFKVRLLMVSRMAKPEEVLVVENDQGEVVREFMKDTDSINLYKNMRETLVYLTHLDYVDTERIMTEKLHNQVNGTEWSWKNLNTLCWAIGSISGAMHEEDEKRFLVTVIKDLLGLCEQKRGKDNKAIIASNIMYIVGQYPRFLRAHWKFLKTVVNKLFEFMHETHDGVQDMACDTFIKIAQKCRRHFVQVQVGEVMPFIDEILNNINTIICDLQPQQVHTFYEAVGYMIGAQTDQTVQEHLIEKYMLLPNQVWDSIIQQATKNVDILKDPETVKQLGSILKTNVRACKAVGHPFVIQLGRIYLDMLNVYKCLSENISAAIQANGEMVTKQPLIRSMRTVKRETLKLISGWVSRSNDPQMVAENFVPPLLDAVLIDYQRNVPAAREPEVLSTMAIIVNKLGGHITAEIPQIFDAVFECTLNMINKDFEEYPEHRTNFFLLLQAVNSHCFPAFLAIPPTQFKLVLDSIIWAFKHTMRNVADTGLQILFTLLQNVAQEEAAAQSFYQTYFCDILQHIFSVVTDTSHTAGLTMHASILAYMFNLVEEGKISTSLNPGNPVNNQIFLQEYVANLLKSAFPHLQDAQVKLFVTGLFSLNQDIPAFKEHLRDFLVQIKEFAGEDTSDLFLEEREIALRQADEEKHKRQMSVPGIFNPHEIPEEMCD
Exportin-1 (Homo sapiens), O14980 [C528S], sequence (O14980 whole entry C528S, the tested form may be a part): as the sequence (O14980 whole entry) above, with C528S counted along it

Regarding `O=C(/C=C\n1cnc(-c2cc(C(F)(F)F)cc(C(F)(F)F)c2)n1)NNc1cnccn1`, the inhibition entry in assay [1] and in assay [2] was “Active” each time.
In the case of `C=C1C(=O)[C@]23[C@H](O)[C@H]1CC[C@H]2[C@@]12CO[C@]3(O)[C@@H](O)[C@@H]1C(C)(C)CC[C@@H]2O`, the inhibition entry (in the assay on Saccharomyces cerevisiae [3]; in the assay on Saccharomyces cerevisiae [4]; in assay [1]; in assay [2]) was “Active” in each case. Moreover, the inhibition result in assay [5] is “inactive”.
With `CC1=CC(=O)c2c(O)cccc2C1=O`, the inhibition result (in the assay with Saccharomyces cerevisiae [4]; in assay [1]; in assay [2]) was “Active” each time.
